What all share (type): cell-based
One assay addresses T1, human TLR8 (Homo sapiens, UniProt Q9NR97).
T1 construct: host or cells: HEK-Blue cells (HEK293-derived reporter line)
T1 sequence (Q9NR97 27-1041): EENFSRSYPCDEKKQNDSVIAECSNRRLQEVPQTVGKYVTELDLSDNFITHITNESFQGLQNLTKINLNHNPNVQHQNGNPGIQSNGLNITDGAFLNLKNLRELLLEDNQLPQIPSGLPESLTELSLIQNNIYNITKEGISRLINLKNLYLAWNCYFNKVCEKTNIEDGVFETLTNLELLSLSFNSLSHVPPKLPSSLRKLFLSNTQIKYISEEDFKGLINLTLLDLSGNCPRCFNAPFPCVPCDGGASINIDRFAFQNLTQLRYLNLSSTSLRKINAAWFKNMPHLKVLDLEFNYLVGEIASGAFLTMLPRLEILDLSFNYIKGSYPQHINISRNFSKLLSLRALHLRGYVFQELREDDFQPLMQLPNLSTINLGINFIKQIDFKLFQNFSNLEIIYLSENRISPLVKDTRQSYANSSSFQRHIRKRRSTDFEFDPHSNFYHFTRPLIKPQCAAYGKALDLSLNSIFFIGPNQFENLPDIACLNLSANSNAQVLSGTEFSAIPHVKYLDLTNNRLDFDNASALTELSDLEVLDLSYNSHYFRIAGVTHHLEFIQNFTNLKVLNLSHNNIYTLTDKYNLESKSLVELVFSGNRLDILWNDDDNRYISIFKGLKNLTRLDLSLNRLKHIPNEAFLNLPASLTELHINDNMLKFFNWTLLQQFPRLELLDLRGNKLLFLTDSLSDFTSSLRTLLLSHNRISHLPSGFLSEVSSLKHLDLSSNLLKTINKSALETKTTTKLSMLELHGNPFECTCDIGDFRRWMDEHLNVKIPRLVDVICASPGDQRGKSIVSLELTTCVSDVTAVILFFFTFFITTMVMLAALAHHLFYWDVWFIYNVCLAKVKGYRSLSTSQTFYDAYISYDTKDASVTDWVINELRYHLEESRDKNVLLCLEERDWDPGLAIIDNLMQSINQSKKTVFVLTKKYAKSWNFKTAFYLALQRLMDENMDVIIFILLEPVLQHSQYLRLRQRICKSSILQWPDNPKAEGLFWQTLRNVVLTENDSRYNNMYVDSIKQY
Description: TLR8 inhibition reporter assay (HEK-Blue cells, SEAP reporter, R848 stimulation). Conditions: HEK-Blue cells overexpressing human TLR8, SEAP reporter, R848 15.9 μM. The essentials:
(§1)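 Percent inhibition of agonist-induced SEAP secretion in HEK-Blue cells after 22 h at 37 °C. Stimuli: 7.5 μM gardiquimod, 15.9 μM R848, 5 nM ODN2006 for TLR7, TLR8 and TLR9, added after 30 min compound exposure over a 0.05 nM–50 μM range.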
(In general: A reporter such as luciferase makes a cellular process visible.)

For the next assay, the target named is T2, human TLR9 (Homo sapiens, UniProt Q9NR96).
T2 construct: host or cells: HEK-Blue cells (HEK293-derived reporter line)
T2 sequence (Q9NR96 26-1032): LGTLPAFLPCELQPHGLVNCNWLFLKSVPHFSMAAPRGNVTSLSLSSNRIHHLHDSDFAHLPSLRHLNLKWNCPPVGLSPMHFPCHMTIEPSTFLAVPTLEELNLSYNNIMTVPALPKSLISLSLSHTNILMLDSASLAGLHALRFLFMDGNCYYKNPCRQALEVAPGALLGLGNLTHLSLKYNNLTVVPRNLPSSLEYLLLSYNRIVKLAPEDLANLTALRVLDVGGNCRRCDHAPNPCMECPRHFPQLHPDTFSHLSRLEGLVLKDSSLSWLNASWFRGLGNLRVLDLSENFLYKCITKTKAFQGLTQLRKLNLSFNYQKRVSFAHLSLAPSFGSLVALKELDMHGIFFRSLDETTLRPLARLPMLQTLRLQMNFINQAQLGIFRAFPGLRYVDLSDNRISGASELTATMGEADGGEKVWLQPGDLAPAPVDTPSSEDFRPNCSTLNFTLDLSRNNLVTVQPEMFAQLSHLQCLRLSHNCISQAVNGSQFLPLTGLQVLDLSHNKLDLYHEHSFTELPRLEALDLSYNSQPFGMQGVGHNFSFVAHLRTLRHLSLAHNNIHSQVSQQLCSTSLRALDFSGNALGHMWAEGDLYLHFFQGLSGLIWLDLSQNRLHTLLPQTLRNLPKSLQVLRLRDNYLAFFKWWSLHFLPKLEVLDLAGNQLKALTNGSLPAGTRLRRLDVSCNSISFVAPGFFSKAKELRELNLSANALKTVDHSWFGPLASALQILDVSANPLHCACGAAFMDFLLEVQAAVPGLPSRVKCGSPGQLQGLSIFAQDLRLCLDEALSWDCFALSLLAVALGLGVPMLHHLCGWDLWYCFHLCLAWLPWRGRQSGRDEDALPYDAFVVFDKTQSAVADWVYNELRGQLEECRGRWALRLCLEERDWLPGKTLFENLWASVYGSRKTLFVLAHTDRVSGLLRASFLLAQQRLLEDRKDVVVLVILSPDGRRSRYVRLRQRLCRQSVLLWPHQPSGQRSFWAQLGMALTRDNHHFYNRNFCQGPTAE
Description: TLR9 inhibition reporter assay (HEK-Blue cells, SEAP reporter, ODN2006 stimulation). The settings on record: HEK-Blue cells overexpressing human TLR9, SEAP reporter, ODN2006 5 nM. The gist of the method:
as §1

Another assay addresses T3, human TLR7 (Homo sapiens, UniProt Q9NYK1).
T3 construct: host or cells: HEK-Blue cells (HEK293-derived reporter line)
T3 sequence (Q9NYK1 27-1049): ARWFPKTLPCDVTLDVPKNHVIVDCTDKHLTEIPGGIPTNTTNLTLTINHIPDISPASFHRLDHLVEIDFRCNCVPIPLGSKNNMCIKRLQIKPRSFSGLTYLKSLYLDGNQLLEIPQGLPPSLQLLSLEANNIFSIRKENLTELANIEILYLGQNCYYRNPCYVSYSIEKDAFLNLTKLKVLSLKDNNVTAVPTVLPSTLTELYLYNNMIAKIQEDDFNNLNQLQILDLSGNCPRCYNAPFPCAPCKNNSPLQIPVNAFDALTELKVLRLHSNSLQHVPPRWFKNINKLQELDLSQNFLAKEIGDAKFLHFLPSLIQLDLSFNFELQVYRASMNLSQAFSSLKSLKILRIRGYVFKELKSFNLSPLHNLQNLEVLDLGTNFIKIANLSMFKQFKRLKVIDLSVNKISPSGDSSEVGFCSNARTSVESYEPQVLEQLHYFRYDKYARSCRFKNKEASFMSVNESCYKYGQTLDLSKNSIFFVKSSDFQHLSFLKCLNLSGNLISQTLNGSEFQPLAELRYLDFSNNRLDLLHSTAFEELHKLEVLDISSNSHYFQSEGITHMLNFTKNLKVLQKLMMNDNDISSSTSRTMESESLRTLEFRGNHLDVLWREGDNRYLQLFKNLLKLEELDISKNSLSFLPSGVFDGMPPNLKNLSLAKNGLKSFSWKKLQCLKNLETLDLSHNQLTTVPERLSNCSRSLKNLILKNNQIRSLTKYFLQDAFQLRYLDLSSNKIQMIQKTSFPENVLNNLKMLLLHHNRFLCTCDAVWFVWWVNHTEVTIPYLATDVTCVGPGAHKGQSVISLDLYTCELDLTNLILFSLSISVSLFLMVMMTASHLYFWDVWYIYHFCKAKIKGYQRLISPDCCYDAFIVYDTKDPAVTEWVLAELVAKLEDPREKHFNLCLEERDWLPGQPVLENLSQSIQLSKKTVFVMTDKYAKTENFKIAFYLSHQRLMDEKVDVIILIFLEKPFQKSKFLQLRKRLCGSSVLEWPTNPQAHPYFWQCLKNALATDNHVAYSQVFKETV
Description: TLR7 inhibition reporter assay (HEK-Blue cells, SEAP reporter, gardiquimod stimulation). Conditions: HEK-Blue cells overexpressing human TLR7, SEAP reporter, gardiquimod 7.5 μM. The essentials: as §1

What is called IC50 is the concentration that inhibits the measured activity by half. Lower therefore signals greater potency. With `CCc1c(-c2ccnc3[nH]ncc23)[nH]c2ccc(C3CCN(Cc4cscn4)CC3)cc12` [Example 927, 4-((4-(3-ethyl-2-(1H-pyrazolo[3,4-b]pyridin-4-yl)-1H-indol-5-yl)piperidin-1-yl)methyl)thiazole], the IC50 at human TLR8 is below 100 nM; against human TLR9, 1000 to 50000 nM; on human TLR7 it was below 100 nM.

On to `CCc1c(-c2ccnc3[nH]ncc23)[nH]c2ccc(C3CCN(C(=O)C4CCN(C)CC4)CC3)cc12` [Example 648, (4-(3-ethyl-2-(1H-pyrazolo[3,4-b]pyridin-4-yl)-1H-indol-5-yl)piperidin-1-yl)(1-methylpiperidin-4-yl)methanone], for which the results for the IC50 against human TLR8, at human TLR9 and against human TLR7 were below 100 nM, 1000 to 50000 nM and below 100 nM, respectively.

Consider `CNc1c[nH]c2nccc(-c3[nH]c4ccc(C5CCNCC5)cc4c3C)c12` [Example 210, N-methyl-4-(3-methyl-5-(piperidin-4-yl)-1H-indol-2-yl)-1H-pyrrolo[2,3-b]pyridin-3-amine], for which the IC50 on human TLR8, against human TLR9 and against human TLR7 was 1000 to 50000 nM in each case.

For `CNC(=O)CN1CCC(c2ccc3[nH]c(-c4ccc(C#N)c5ncccc45)c(C(C)C)c3c2)CC1` [Example 371, 2-(4-(2-(8-cyanoquinolin-5-yl)-3-isopropyl-1H-indol-5-yl)piperidin-1-yl)-N-methylacetamide], the IC50 against human TLR8 is below 100 nM; at human TLR9 it was 1000 to 50000 nM; against human TLR7 it was below 100 nM.

As to `Cc1cc(-c2[nH]c3ccc(C4CCN(Cc5ncn(C)n5)CC4)cc3c2C(C)C)cc2cnnn12` [Example 890, 5-(3-isopropyl-5-(1-((1-methyl-1H-1,2,4-triazol-3-yl)methyl)piperidin-4-yl)-1H-indol-2-yl)-7-methyl-[1,2,3]triazolo[1,5-a]pyridine], the IC50 at human TLR8 is below 100 nM; against human TLR9, 1000 to 50000 nM; at human TLR7, below 100 nM.

Turning to `Cc1cc(-c2[nH]c3ccc(C4CCN(CC(C)(C)O)CC4)cc3c2C(C)C)cc2nccn12` [Example 757, 1-(4-(3-isopropyl-2-(5-methylimidazo[1,2-a]pyridin-7-yl)-1H-indol-5-yl)piperidin-1-yl)-2-methylpropan-2-ol], the IC50 on human TLR8 was 100 to 1000 nM; against human TLR9, 100 to 1000 nM; at human TLR7, 1000 to 50000 nM.

`CC(C)c1c(-c2cn3cnnc3c(O)n2)[nH]c2ccc(C3CCNCC3)cc12` [Example 34, 6-(3-isopropyl-5-(piperidin-4-yl)-1H-indol-2-yl)-[1,2,4]triazolo[4,3-a]pyrazin-8-ol]: the results for the half-inhibitory concentration (IC50) against human TLR8, against human TLR9 and against human TLR7 were above 3130 nM, 1000 to 50000 nM and 1000 to 50000 nM, respectively.

As for `Cc1c(-c2ccnc3[nH]ccc23)[nH]c2ccc(C3CCNCC3)cc12` [Example 2, 4-(3-methyl-5-(piperidin-4-yl)-1H-indol-2-yl)-1H-pyrrolo[2,3-b]pyridine], the 50% inhibitory concentration (IC50) against human TLR8 is below 100 nM; at human TLR9 it was 1000 to 50000 nM; at human TLR7, below 100 nM.

As for `CC(C)c1c(-c2ccnc3[nH]ncc23)[nH]c2ccc(C3CCN(C4CCN(C(C)C)CC4)CC3)cc12` [Example 821, 4-(3-isopropyl-5-(1′-isopropyl-[1,4′-bipiperidin]-4-yl)-1H-indol-2-yl)-1H-pyrazolo[3,4-b]pyridine], the IC50 on human TLR8, at human TLR9 and at human TLR7 was below 100 nM each time.

As for `Cc1cc(-c2[nH]c3ccc(C4CCN(CC(N)=O)CC4)cc3c2C(C)C)cc2cccnc12` [Example 436, 2-(4-(3-isopropyl-2-(8-methylquinolin-6-yl)-1H-indol-5-yl)piperidin-1-yl)acetamide], the figures for the IC50 against human TLR8, at human TLR9 and against human TLR7 were below 100 nM, 1000 to 50000 nM and below 100 nM, respectively.

`CCc1c(-c2ccnc3[nH]ccc23)[nH]c2ccc(C3CCN(C4CCN(CC)CC4)CC3)cc12` [Example 837, 4-(3-ethyl-5-(1′-ethyl-[1,4′-bipiperidin]-4-yl)-1H-indol-2-yl)-1H-pyrrolo[2,3-b]pyridine]: the IC50 is below 100 nM on human TLR8, 100 to 1000 nM on human TLR9 and below 100 nM against human TLR7.

Regarding `CC(C)c1c(-c2cnc3[nH]ncc3c2)[nH]c2ccc(C3CCN(C(=O)CN(C)C)CC3)cc12` [Example 562, 2-(dimethylamino)-1-(4-(3-isopropyl-2-(1H-pyrazolo[3,4-b]pyridin-5-yl)-1H-indol-5-yl)piperidin-1-yl)ethan-1-one], the IC50 on human TLR8 is below 100 nM; on human TLR9, 1000 to 50000 nM; on human TLR7, below 100 nM.

For `CC(C)c1c(-c2ccnc3[nH]ncc23)[nH]c2ccc(C3CCN(C4CCCNC4)CC3)cc12` (stereo not drawn) [Example 653, 4-(5-([1,3′-bipiperidin]-4-yl)-3-isopropyl-1H-indol-2-yl)-1H-pyrazolo[3,4-b]pyridine], the IC50 at human TLR8 was below 100 nM; on human TLR9 it was 100 to 1000 nM; on human TLR7 it was below 100 nM.

(Values after patent US11739098B2 (BRISTOL-MYERS SQUIBB COMPANY, priority 2017, dated 2023).)
